From ChEMBL document CHEMBL4118223, “New TRAP1 and Hsp90 chaperone inhibitors with cationic components: Preliminary studies on mitochondrial targeting” (Bioorg Med Chem Lett, 2018)
Active and inactive are the calls of the source. The calls are words filed in the database; no cut-off is given here.

Columns and labels:
[1] = Drug uptake in cytosol of human HCT116 cells at 1 uM after 12 hrs by mass spectrometric analysis; format: ADME, subcellular, HCT-116
HCT-116 [2] = assay: Antiproliferative activity against human HCT116 cells after 24 hrs by MTT assay; format: functional, cell-based; details: HCT-116, 24 h
[3] = target: Heat shock protein HSP 90-alpha (Homo sapiens, UniProt P07900); assay: Inhibition of FITC-geldanamycin binding to recombinant human HSP90alpha expressed in Escherichia coli by fluorescence anisotropy method
[4] = Drug uptake in mitochondria of human HCT116 cells at 1 uM after 12 hrs by mass spectrometric analysis; format: ADME; details: hct-116, 12 h
HCT-116 [5] = assay: Induction of apoptosis in human HCT116 cells at 1 to 10 uM after 24 hrs by FITC/Annexin-V/7-AAD staining-based FACS analysis; format: functional, cell-based
[6] = target: T1, Heat shock protein 75 kDa, mitochondrial (Homo sapiens, UniProt Q12931)
T1 sequence (Q12931 whole entry): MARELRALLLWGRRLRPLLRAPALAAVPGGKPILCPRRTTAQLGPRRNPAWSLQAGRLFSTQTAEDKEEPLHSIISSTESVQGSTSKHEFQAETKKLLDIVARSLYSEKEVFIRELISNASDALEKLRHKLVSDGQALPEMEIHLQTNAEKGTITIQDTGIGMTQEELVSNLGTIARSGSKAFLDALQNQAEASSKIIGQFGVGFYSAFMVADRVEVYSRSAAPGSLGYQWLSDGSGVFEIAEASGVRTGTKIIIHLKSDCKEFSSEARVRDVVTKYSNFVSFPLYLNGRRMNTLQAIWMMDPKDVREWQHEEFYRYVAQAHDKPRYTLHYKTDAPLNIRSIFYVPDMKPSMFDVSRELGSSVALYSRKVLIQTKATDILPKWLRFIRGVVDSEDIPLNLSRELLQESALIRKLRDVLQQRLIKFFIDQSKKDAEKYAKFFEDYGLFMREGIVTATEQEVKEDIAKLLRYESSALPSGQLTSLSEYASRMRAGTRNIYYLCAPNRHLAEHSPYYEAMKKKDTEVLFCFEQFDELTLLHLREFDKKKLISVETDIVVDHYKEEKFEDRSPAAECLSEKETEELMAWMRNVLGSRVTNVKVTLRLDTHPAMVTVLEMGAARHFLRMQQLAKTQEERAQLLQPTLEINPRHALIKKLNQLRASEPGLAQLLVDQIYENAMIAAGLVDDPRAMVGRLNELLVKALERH
Description: Inhibition of recombinant human N-terminal His6-tagged TRAP1 (60 to 704 residues) ATPase activity expressed in Escherichia coli BL21-CodonPlus-RIL after overnight incubation by BioMol green dye-based assay

HCT-116 [7] = assay: Induction of apoptosis in human HCT116 cells at 0.1 to 10 uM after 24 hrs by FITC/Annexin-V/7-AAD staining-based FACS analysis; format: functional, cell-based
HCT-116 [8] = assay: Induction of apoptosis in human HCT116 cells at 10 uM after 24 hrs by FITC/Annexin-V/7-AAD staining-based FACS analysis; format: functional, cell-based

For `CCNC(=O)c1noc(-c2cc(C(C)C)c(O)cc2O)c1NC(=O)c1ccc(C(=O)NC(=N)N)cc1`, the Drug uptake [1] was “Not Active”, the IC50 (HCT-116 [2]) was 1.32 µM and the IC50 [3] was 0.021 µM. For the same compound, the Kd [3] was 0.0015 µM, the Drug uptake [4] was “Active” and the Activity (HCT-116 [5]) was “Active”.
With `CCNC(=O)c1noc(-c2cc(C(C)C)c(O)cc2O)c1NC(=O)CCCCC(=O)NCCCNCCNCCCN` the IC50 [6] was 5 µM, the Drug uptake [1] was “Not Active” and the IC50 (HCT-116 [2]) was 26.7 µM. For the same compound, the Drug uptake [4] was “Active” and the Activity (HCT-116 [7]) was “Active”.
In the case of `CCNC(=O)c1noc(-c2cc(C(C)C)c(O)cc2O)c1NC(=O)CCCCC[n+]1ccccc1.[Br-]`, the IC50 [6] is reported as 10 µM, the Drug uptake [1] is reported as “Not Active” and the IC50 (HCT-116 [2]) is reported as 7.86 µM. For the same compound, the Activity (HCT-116 [8]) was “Active”.
With `CCNC(=O)c1noc(-c2cc(C(C)C)c(O)cc2O)c1NC(=O)c1ccc(OC)cc1` the IC50 [6] was 0.4 µM, the IC50 (HCT-116 [2]) was 0.87 µM and the Drug uptake [4] was “Not Active”. For the same compound, the Activity (HCT-116 [7]) was “Active”.
With `COc1cccc(-c2cc(F)ccc2[C@H]2Cc3nc(N)nc(C)c3C(=O)N2)n1` the IC50 [6] was 0.2 µM, the Drug uptake [4] was “Not Active” and the Activity (HCT-116 [7]) was “Active”.
For `CCNC(=O)c1noc(-c2cc(C(C)C)c(O)cc2O)c1NC(=O)CCCCCCc1ccc(C(=O)NC(=N)N)cc1`, the IC50 [6] was 3 µM, the Drug uptake [1] was “Not Active” and the IC50 (HCT-116 [2]) was 6.17 µM. The Drug uptake [4] was “Active”.
Compound `CCNC(=O)c1noc(-c2cc(C(C)C)c(O)cc2O)c1NC(=O)CCN1CCOCC1` has an IC50 [6] of 20 µM.
For `CCNC(=O)c1noc(-c2cc(C(C)C)c(O)cc2O)c1NC(=O)CCCCC[P+](c1ccccc1)(c1ccccc1)c1ccccc1.[Br-]`, the IC50 [6] was 25 µM, the Drug uptake [1] was “Not Active” and the IC50 (HCT-116 [2]) was 5.12 µM. The Activity (HCT-116 [8]) was “Active” and the Drug uptake [4] was “Active”.
